Assay results taken from patent publication US12115174B2, “Dendrimer formulations” (AstraZeneca AB, priority 2018, dated 2024).

What was measured:
Assay type in all cases: in vivo
SuDHL-4 = SuDHL-4 xenograft model in SCID mice, alone and with rituximab
Procedure: Formulations of Compound 1 for SuDHL-4 efficacy study: Compound 1 was formulated in a pH 5 citrate/phosphate buffer diluted 1:10 with 5% glucose and containing 1% w/v Kolliphor HS-15, at concentrations up to 105 mg/mL of Compound 1 (equivalent to up to 30 mg/mL of Compound A concentration).
Formulations of Compound 2 for dosing in SuDHL-4 efficacy study: Compound 2 was formulated in a pH 4 citrate/phosphate buffer diluted 1:10 with 5% Glucose and containing 1% w/v Kolliphor HS-15, at concentrations up to 121 mg/mL of Compound 2 (equivalent of up to 30 mg/mL of Compound A concentration).
Compounds 1 and 2 enhance inhibition of tumor growth by rituximab in SuDHL-4 Xenograft Model in SCID Mice: The SuDHL-4 xenograft model was used to test the ability of Compounds 1 and 2 to enhance the activity of rituximab in inhibiting tumor growth. […]
Tumor sizes were measured 2 times a week and calculated as: Tumor Volume=(A×B^2)/2 where A and B are the tumor length and width (in mm), respectively.
(§1) On specific day, for each treated group, calculate Inhibition value by formula: Inhibition %=(CG-TG)*100/(CG-1), in which “CG” means the geometric mean of rtv of the control group and “TG” means the Geometric Mean of Relative Tumor Volume (rtv) of the treated group. “CG” should use the corresponding control group of the treated group when calculated. […]

[1] = system: human acute lymphoblastic leukemia cells (RS4:11); assay: RS4:11 Acute Lymphoblastic Leukemia xenograft efficacy in SCID mice
Procedure: The efficacy evaluation of the vehicle (phosphate buffer saline), Compound A (formulated in 30% HP-β-CD, pH 4), Compound 1 in PBS (equivalent to 10 mg/kg Compound A) and Compound 2 in PBS (equivalent to 10 mg/kg and 30 mg/kg Compound A) is shown.
The efficacy evaluation of the vehicle (phosphate buffer saline, PBS), a formulation of Compound A in 30% HP-β-CD, Compound 1 in PBS (equivalent to 20 mg/kg Compound A) and Compound 2 in PBS (equivalent to 20 mg/kg Compound A) and is shown.
Preparation of Compounds 1 and 2 PBS formulations for dosing RS4:11 efficacy study: The appropriate amounts of Compound 1 and 2 were weighed into a volumetric flask. 10 mL Dulbecc's Phosphate Buffered Saline (PBS) was added and formulations were then stirred until the compound dissolved entirely.
The appropriate amount of Compound A was weighed into a 10 mL volumetric flask. 8 mL of 30% w/v HP-β-CD vehicle was then added and the formulation stirred. 1M MSA was added dropwise until the pH was reduced to about 2. The formulation was then stirred until the compound dissolved entirely. The pH was measured and adjusted to pH 4, dropwise using 1M MSA or NaOH. The formulation was then stirred to make sure a clear solution (with possible haze) was obtained. The volume was then made up to 10 mL with 30% w/v HP-β-CD vehicle and stirred. The final pH was measured and recorded and the formulation filtered through a […] filter prior to administration. Other formulation strengths were prepared by diluting the Compound A in 30% w/v HP-β-CD with an appropriate amount of 30% w/v HP-β-CD vehicle.
Efficacy of Compounds 1 and 2 in RS4:11 Xenograft Model: 5×10^6 RS4; 11 cells in a total volume of 100 μL were inoculated subcutaneously at the mouse right flank. […]
as §1

[2] = system: Cleaved poly ADP ribose polymerase (PARP); assay: Cleaved PARP response (cell death) after a single dose; settings: Compound A in HP-β-CD formulation
Procedure: Cleaved poly ADP ribose polymerase (PARP) response was used as a measure of cell death.
Additionally, cell death (apoptosis) was measured using cleaved PARP (FIG. 4).

## rituximab [reference compound]
SuDHL-4; rituximab 10 mg/kg alone
  T − C: >16 days
SuDHL-4; rituximab 10 mg/kg i.p. once a week for 5 weeks
  % Inhibition (TIC) Day(41): 75.27%

## CN(CCO)CC[C@H](CCSc1ccccc1)CNc1ccc(S(=O)(=O)NC(=O)c2ccc(N3CCC([C@@H](O)c4ccccc4-c4ccc(Cl)cc4)CC3)cc2)cc1S(=O)(=O)C(F)(F)F [Compound A, reference compound]
[1]; Compound A 5 mg/kg
  % Inhibition Day (47): >100%
  % Regression Day(47): 90%
[1]; Compound A HP-β-CD 10 mg/kg IV once
  regression: 90%
[2]
  time of cleaved PARP induction post treatment: immediately post treatment 1 and 3 hr
